Consider three molecules from patent publication US20120245224A1, “CANNABINOIDS FOR USE IN THE TREATMENT OF NEUROPATHIC PAIN” (GW Pharma Limited, priority 2006, published 2012).

Data set [1] deals with thermal hyperalgesia after chronic constriction injury (CCI) to the sciatic nerve. As to the kind of experiment: Repeated administration, thermal hyperalgesia (Hargreaves plantar test) in CCI rats. The format is in vivo, rat. The conditions noted are these: for difference between the pain relieving values before and after treatment, Thermal Hyperalgesia: day 14 minus day 7. On the procedure: (§1) Painful neuropathy was induced in male Wistar rats weighing 200-220 g (Harlan, Italy). Animals were anaesthetized with sodium pentobarbital (60 mg kg^−1 i.p.) and submitted to a surgical procedure to induce neuropathic pain according to Bennet & Xie (1988).
(§2) This procedure was a chronic constriction injury (CCI) to the sciatic nerve, this was achieved by exposing the common sciatic nerve at the level of the mid thigh and, proximal to the sciatic nerves trifurcation, four ligatures were loosely tied around it with about 1 mm spacing so that the epineural circulation was preserved.
(§3) Sham animals (sciatic exposure without ligation) were used as controls.
(§4) The compounds tested were a cannabinoid-containing plant extract which contained a ratio of CBD:THC of approximately 24:1. From Table 1 this could also be described as a “CBD-containing plant extract”. The extract comprised CBD at a concentration of 10 mg/kg and THC at a concentration of 0.42 mg/kg. Pure cannabinoids CBD (at a concentration of 10 mg/kg) and THC (at a concentration of 0.42 mg/kg) were also used as test articles for comparison to the cannabinoid-containing plant extract.
(§5) The test compounds were dissolved in a 1:1:18 mixture of ethanol, cremophor and saline.
(§6) In the repeated administration study the rats received the test compounds or the vehicle orally once a day for seven days, starting from the seventh day after the surgical procedure.
(§7) The animals pain response was monitored (i) before surgery, (ii) on day 7 (before starting the treatment) and (iii) on day 14 (24 hours after the last administration of the test article).
(§8) Thermal hyperalgesia was tested according to the Hargreaves procedure (Hargreaves et al., 1988) using the plantar test (Ugo Basile, Varese, Italy).
(§9) Briefly, animals were placed in a clear plexiglass box and allowed to acclimatise. A constant intensity radiant heat source was aimed at the midplantar area of the hind paw. The time, in seconds, from initial heat source activation until paw withdrawal was recorded.
Table 4 below details the data produced by the repeated administration of the vehicle to the sham animals or administration of vehicle or test article to animals with CCI. Test article or vehicle was administered 7 days after the chronic constriction injury was applied and was administered once a day for a further seven days.

The test system of data set [2] is mechanical allodynia after chronic constriction injury (CCI) to the sciatic nerve. As to the kind of experiment: Repeated administration, mechanical allodynia (Dynamic Plantar Aesthesiometer) in CCI rats. The format is in vivo, rat. As to conditions: for difference between the pain relieving values before and after treatment, Mechanical Allodynia: day 14 minus day 7. The procedure:
as §1, §2, §3, §4, §5, §6, §7
(§10) Mechanical allodynia was assessed using the Dynamic Plantar Aesthesiometer (Ugo Basile, Varese, Italy). Particularly, animals were placed in a test cage with a wire mesh floor, and the tip of von Frey-type filament was applied to the middle of the plantar surface of the hind paw. The filament exerted an increasing force starting below the threshold of detection and increasing until the animal removed its paw. Withdrawal threshold was expressed as tolerance level in g.
Table 5 below details the data produced by the repeated administration of the vehicle to the sham animals or administration of vehicle or test article to animals with CCI. Test article or vehicle was administered 7 days after the chronic constriction injury was applied and was administered once a day for a further seven days.

Data set [3] deals with neuropathic pain model of chronic constriction injury of the rat sciatic nerve. The conditions noted are these: purified compound; thermal and mechanical hyperalgesia and mechanical allodynia; cited from earlier work.
For data set [4], the system named is mechanical allodynia after chronic constriction injury (CCI) to the sciatic nerve. As to the kind of experiment: Acute administration, mechanical allodynia (Dynamic Plantar Aesthesiometer) in CCI rats. Format: in vivo, rat. As to conditions: for Withdrawal threshold: CCI rats 14 days after injury, THC 0.42 mg/kg, CBD 10 mg/kg; for mean pain relieving effect of the test article when compared to the vehicle as a percentage, Mechanical Allodynia: mean over the test period. The procedure: as §1, §2, §3, §4, §5
(§11) The acute administration of compounds was evaluated in rats treated with vehicle for one week and subsequently provided with the test article prior to the behavioural evaluations. The behavioural evaluations were performed at different times (between 30 min to 24 hours).
as §10
Table 3 below details the data produced by the acute administration of the vehicle to the sham animals or administration of vehicle or test article to animals with CCI, 14 days after the injury occurred.

In data set [5] the test system is thermal hyperalgesia after chronic constriction injury (CCI) to the sciatic nerve. Nature of the data set: Acute administration, thermal hyperalgesia (Hargreaves plantar test) in CCI rats. Format: in vivo, rat. The conditions noted are these: for Withdrawal latency: CCI rats 14 days after injury, THC 0.42 mg/kg, CBD 10 mg/kg; for mean pain relieving effect of the test article when compared to the vehicle as a percentage, Thermal Hyperalgesia: mean over the test period. The procedure: as §1, §2, §3, §4, §5, §11, §8, §9
Table 2 below details the data produced by the acute administration of the vehicle to the sham animals or administration of vehicle or test article to animals with CCI, 14 days after the injury occurred.

For data set [6], the system named is patients taking carbamezepine. The conditions noted are these: cited from earlier work.
Where [7] appears, read: day 0 (prior to CCI), baseline of the treatment group.
Where [8] appears, read: day 7 after CCI (before drug treatment), baseline of the treatment group.
Where [9] appears, read: day 14 after CCI (after 7 days of drug treatment, orally once a day; THC 0.42 mg/kg, CBD 10 mg/kg).
Setting [10] is: repeated administration, 7 days.

Take `C=C(C)[C@@H]1CCC(C)=C[C@H]1c1c(O)cc(CCCCC)cc1O` [CBD, cannabidiol]: the Withdrawal latency in data set [1] (setting [7]) is 10.4 s; in data set [1] (setting [8]), 5.5 s; in data set [1] (setting [9]), 8.7 s; in data set [5] (30 min after administration) it was 5.4 s; in data set [5] (60 min after administration), 5.4 s; in data set [5] (90 min after administration), 5.4 s. The results for the Withdrawal latency in data set [5] (120 min after administration), in data set [5] (150 min after administration) and in data set [5] (180 min after administration) were 5.3 s, 5.4 s and 5.3 s, respectively. For the same molecule, the “difference between the pain relieving values before and after treatment, Thermal Hyperalgesia” value in data set [1] (repeated administration) stood at 3.2 s. For the same molecule, the Withdrawal threshold in data set [2] (setting [7]) was found to be 34 g; in data set [2] (setting [8]) it was 15 g; in data set [2] (setting [9]) it was 19 g; in data set [4] (30 min after administration), 10 g; in data set [4] (60 min after administration), 10 g; in data set [4] (90 min after administration) it was 11 g. Also, the Withdrawal threshold in data set [4] (120 min after administration), in data set [4] (150 min after administration) and in data set [4] (180 min after administration) was 10 g in each case. Also, the “difference between the pain relieving values before and after treatment, Mechanical Allodynia” value in data set [2] (repeated administration) amounted to 4 g. Also, in data set [3], the “relief of neuropathic pain (in words)” value was “can partially relieve neuropathic pain”. Further, the “pain relieving effect (in words), mechanical allodynia” value in data set [4] is reported as “did not produce any pain relieving effects”. The “mean pain relieving effect of the test article when compared to the vehicle as a percentage, Mechanical Allodynia” value in data set [4] was −13%. For the same molecule, in data set [5], the “pain relieving effect (in words), thermal hyperalgesia” value was “did not produce any pain relieving effects”. In data set [5], the “mean pain relieving effect of the test article when compared to the vehicle as a percentage, Thermal Hyperalgesia” value is listed as −4%.

Regarding `CCCCCc1cc(O)c2c(c1)OC(C)(C)[C@@H]1CCC(C)=C[C@@H]21` [THC, delta-9-tetrahydrocannabinol], the Withdrawal latency came out at 9.8 s in data set [1] (setting [7]); 5.8 s in data set [1] (setting [8]); 4.8 s in data set [1] (setting [9]); 11.0 s in data set [5] (30 min after administration); 10.2 s in data set [5] (60 min after administration); 9.8 s in data set [5] (90 min after administration). The figures for the Withdrawal latency in data set [5] (120 min after administration), in data set [5] (150 min after administration) and in data set [5] (180 min after administration) were 6.0 s, 5.0 s and 5.3 s, respectively. For the same molecule, the “pain relieving effect (in words), thermal hyperalgesia” value was “did not result in any pain relieving effect” in data set [1] (setting [10]) and “increased the withdrawal latency over that of the vehicle treated animals” in data set [5]. Besides, in data set [1] (repeated administration), the “difference between the pain relieving values before and after treatment, Thermal Hyperalgesia” value was -1.0 s. Also, the Withdrawal threshold in data set [2] (setting [7]) was determined as 31 g; in data set [2] (setting [8]), 12 g; in data set [2] (setting [9]), 10 g; in data set [4] (30 min after administration), 12 g; in data set [4] (60 min after administration), 9 g; in data set [4] (90 min after administration), 15 g. The results for the Withdrawal threshold in data set [4] (120 min after administration), in data set [4] (150 min after administration) and in data set [4] (180 min after administration) were 21 g, 13 g and 10 g, respectively. Also, the “pain relieving effect (in words), mechanical allodynia” value in data set [2] (setting [10]) was “did not result in any pain relieving effect”. Also, the “difference between the pain relieving values before and after treatment, Mechanical Allodynia” value in data set [2] (repeated administration) is -2 g. The “mean pain relieving effect of the test article when compared to the vehicle as a percentage, Mechanical Allodynia” value in data set [4] came to 14%. In data set [4] (peak after 120 minutes), this molecule gave a peak withdrawal threshold of 20 g. Also, the “mean pain relieving effect of the test article when compared to the vehicle as a percentage, Thermal Hyperalgesia” value in data set [5] came out at 47%.

For the molecule `NC(=O)N1c2ccccc2C=Cc2ccccc21` [carbamezepine], in data set [6] (post-marketing studies, patients taking carbamezepine), the “increase in the risk of blood dyscrasias” value was “five- to eight-fold increase”. Also, the “patients with a 25% decrease in their white blood cell count” value in data set [6] (usually reverses within the first 4 months of therapy) is on record as 7%.
